Laboratory results as given in US11672810B2, “Therapeutics and methods for predicting and overcoming endocrine resistance in breast cancer” (LUNELLA BIOTECH, INC., priority 2019, dated 2023).

Columns and labels:
MCF7-GFP cells = test: Drug treatment of fluorescently-labeled MCF7-fibroblast co-cultures vs mono-cultures (GFP fluorescence, plate-reader); format: cell-based, human; conditions: 72 hours; for Sensitivity of MCF7-GFP cells in co-culture with fibroblasts relative to mono-cultures: at 500 μM drug, GFP fluorescence, hTERT-BJ1-RFP fibroblast co-culture vs MCF7-GFP mono-culture
From the text: To directly test this hypothesis, a new assay system may be used to monitor the sensitivity of cancer cells to drug treatment, in the presence or absence of fibroblasts. For this purpose, hTERT-BJ1-fibroblasts expressing RFP (red fluorescent protein) and MCF7 cells expressing GFP (green fluorescent protein) were generated. Representative images of these mono-cultures are shown in FIGS. 14A (hTERT-BJ1-RFP) and 14B (MCF7-GFP). The hTERT-BJ1-fibroblasts expressing RFP and MCF7 cells expressing GFP were generated by lentiviral transduction. RFP, red fluorescent protein; GFP, green fluorescent protein.
Validation via drug treatment of fluorescently-labeled MCF7-fibroblast co-cultures: hTERT-BJ1-RFP cells and MCF7-GFP cells were first generated by stable transduction with lenti-viral vectors. Then, these cells were plated into clear flat bottom 96-well black microplates (Corning; CLS3603). Mono-cultures were generated by plating either hTERT-BJ1-RFP (8,000 cells/well) or MCF7-GFP cells (8,000 cells/well). In parallel, co-cultures were generated by co-plating hTERT-BJ1-RFP (6,000 cells/well) with MCF7-GFP (2,000 cells/well). The next day, the plates were treated with either Doxycycline or Azithromycin (or vehicle controls) and were incubated for 72 hours at 37° C. The cell culture plates were then read with a plate-reader at 545/590 nm (for RFP) and at 490/510 nm (for GFP). Background readings were subtracted from the fluorescent signal and data were then normalized to controls.

[1] = test system: MCF7-fibroblasts co-cultures; conditions: MCF7-fibroblast co-cultures; Tamoxifen, Fulvestrant; cited from earlier work

| Compound | Sensitivity of MCF7-GFP cells in co-culture with fibroblasts relative to mono-cultures (MCF7-GFP cells) | Concentration at which increased sensitivity of MCF7-GFP cells in co-culture was first observed (MCF7-GFP cells; not observed at 50 μM) | Effect on resistance of co-cultures to apoptosis induced by hormonal therapies [1] |
| --- | --- | --- | --- |
| CC[C@H]1OC(=O)[C@H](C)[C@@H](O[C@H]2C[C@@](C)(OC)[C@@H](O)[C@H](C)O2)[C@H](C)[C@@H](O[C@@H]2O[C@H](C)C[C@H](N(C)C)[C@H]2O)[C@](C)(O)C[C@@H](C)CN(C)[C@H](C)[C@@H](O)[C@]1(C)O [Azithromycin] | ~8 fold |  |  |
| C[C@H]1c2cccc(O)c2C(=O)C2=C(O)[C@]3(O)C(=O)C(C(N)=O)=C(O)[C@@H](N(C)C)[C@@H]3[C@@H](O)[C@@H]21 [Doxycycline] | ~5 fold | 100 µM |  |
| CN(C)C(=N)N=C(N)N [Metformin] |  |  | reversed |
